# Source: patent US9334289B2, “Cephem compound having catechol or pseudo-catechol structure” (SHIONOGI & CO., LTD., priority 2011, dated 2016)
# Key:
# Assay type in all cases: cell-based
# P. aeruginosa SR24 = test: MIC, CLSI broth microdilution, Test Example 1; details: Pseudomonas aeruginosa, SR24; Ceftazidime resistance strain; cation-adjusted Mueller Hinton broth containing human apo-transferrin; 5×10^5 cfu/mL; read-out: Minimum Inhibitory Concentration (MIC) P. aeruginosa SR24
# A. baumannii SR27323 = test: MIC, CLSI broth microdilution, Test Example 1; details: Acinetobacter baumannii, SR27323; OXA-23, OXA-58 carbapenemase producing strain; cation-adjusted Mueller Hinton broth containing human apo-transferrin; 5×10^5 cfu/mL; read-out: Minimum Inhibitory Concentration (MIC) A. baumannii SR27323
# Protocol: (§1) Measurement of Minimum Inhibitory Concentration (MIC: μg/mL) was conducted according to CLSI (Clinical and Laboratory Standards Institute) method, and the amount of bacteria for inoculation was 5×10^5 cfu/mL, and cation-adjusted Mueller Hinton broth containing human apo-transferrin was used as a test medium, and the experiment was conducted using broth microdilution method. The bacteria used are listed below.
# E. coli ATCCBAA-199 = test: MIC, CLSI broth microdilution, Test Example 1; details: Escherichia coli, ATCCBAA199; SHV-3 ESBL producing strain; cation-adjusted Mueller Hinton broth containing human apo-transferrin; 5×10^5 cfu/mL; read-out: Minimum Inhibitory Concentration (MIC) E. coli ATCC BAA-199
# Protocol: as §1
# E. coli ATCCBAA-200 [1] = test: MIC, CLSI broth microdilution, Test Example 1; details: Escherichia coli, ATCCBAA200; SHV-4 ESBL producing strain; cation-adjusted Mueller Hinton broth containing human apo-transferrin; 5×10^5 cfu/mL; read-out: Minimum Inhibitory Concentration (MIC) E. coli ATCC BAA-200
# Protocol: as §1
# [2] = test system: K. pneumoniae ATCCBAA-1705; test: MIC, CLSI broth microdilution, Test Example 1; details: Klebsiella pneumoniae, ATCCBAA1705; KPC-2 carbapenemase producing strain; cation-adjusted Mueller Hinton broth containing human apo-transferrin; 5×10^5 cfu/mL; read-out: Minimum Inhibitory Concentration (MIC) K. pneumoniae ATCCBAA-1705
# Protocol: as §1
# P. aeruginosa SR24837 = test: MIC, CLSI broth microdilution, Test Example 1; details: Pseudomonas aeruginosa, SR24837; PER-1 ESBL producing strain; cation-adjusted Mueller Hinton broth containing human apo-transferrin; 5×10^5 cfu/mL; read-out: Minimum Inhibitory Concentration (MIC) P. aeruginosa SR24837
# Protocol: as §1
# P. aeruginosa SR27060 = test: MIC, CLSI broth microdilution, Test Example 1; details: Pseudomonas aeruginosa, SR27060; IMP-1 MBL producing strain (carbapenem resistance strain); cation-adjusted Mueller Hinton broth containing human apo-transferrin; 5×10^5 cfu/mL; read-out: Minimum Inhibitory Concentration (MIC) P. aeruginosa SR27060
# Protocol: as §1
# A. baumannii SR01331 = test: MIC, CLSI broth microdilution, Test Example 2; details: Acinetobacter baumannii, SR01331; PER-1, OXA-23.51 ESBL- & OXA-type carbapenemase producing strain; cation-adjusted Iso-Sensitest broth containing human Apo-transferrin; 5×10^5 cfu/mL; read-out: Minimum Inhibitory Concentration (MIC) A. baumannii SR01331
# Protocol: as §1, with “Iso-Sensitest” for “Mueller Hinton”, “Apo-transferrin” for “apo-transferrin”, “method.” for “method. The bacteria used are listed below.”
# E. cloacae NCTC13464 = test: MIC, CLSI broth microdilution, Test Example 2; details: Enterobacter cloacae, NCTC13464; CTX-M group 9 ESBL producing strain; cation-adjusted Iso-Sensitest broth containing human Apo-transferrin; 5×10^5 cfu/mL; read-out: Minimum Inhibitory Concentration (MIC) E. cloacae NCTC 13464
# Protocol: as §1, with “Iso-Sensitest” for “Mueller Hinton”, “Apo-transferrin” for “apo-transferrin”, “method.” for “method. The bacteria used are listed below.”
# E. coli ATCCBAA-196 = test: MIC, CLSI broth microdilution, Test Example 2; details: Escherichia coli, ATCCBAA196; TEM-10 ESBL producing strain; cation-adjusted Iso-Sensitest broth containing human Apo-transferrin; 5×10^5 cfu/mL; read-out: Minimum Inhibitory Concentration (MIC) E. coli ATCC BAA-196
# Protocol: as §1, with “Iso-Sensitest” for “Mueller Hinton”, “Apo-transferrin” for “apo-transferrin”, “method.” for “method. The bacteria used are listed below.”
# E. coli ATCCBAA-200 [3] = test: MIC, CLSI broth microdilution, Test Example 2; details: Escherichia coli, ATCCBAA200; SHV-4 ESBL producing strain; cation-adjusted Iso-Sensitest broth containing human Apo-transferrin; 5×10^5 cfu/mL; read-out: Minimum Inhibitory Concentration (MIC) E. coli ATCC BAA-200
# Protocol: as §1, with “Iso-Sensitest” for “Mueller Hinton”, “Apo-transferrin” for “apo-transferrin”, “method.” for “method. The bacteria used are listed below.”
# E. coli SR01337 = test: MIC, CLSI broth microdilution, Test Example 2; details: Escherichia coli, SR01337; TEM-1 ESBL producing strain; cation-adjusted Iso-Sensitest broth containing human Apo-transferrin; 5×10^5 cfu/mL; read-out: Minimum Inhibitory Concentration (MIC) E. coli SR01337
# Protocol: as §1, with “Iso-Sensitest” for “Mueller Hinton”, “Apo-transferrin” for “apo-transferrin”, “method.” for “method. The bacteria used are listed below.”
# K. pneumoniae ATCC700603 = test: MIC, CLSI broth microdilution, Test Example 2; details: Klebsiella pneumoniae, ATCC700603; SHV18 ESBL producing strain; cation-adjusted Iso-Sensitest broth containing human Apo-transferrin; 5×10^5 cfu/mL; read-out: Minimum Inhibitory Concentration (MIC) K. pneumoniae ATCC 700603
# Protocol: as §1, with “Iso-Sensitest” for “Mueller Hinton”, “Apo-transferrin” for “apo-transferrin”, “method.” for “method. The bacteria used are listed below.”
# P. aeruginosa SR01332 = test: MIC, CLSI broth microdilution, Test Example 2; details: Pseudomonas aeruginosa, SR01332; VIM-11 MBL producing strain (carbapenem resistance strain); cation-adjusted Iso-Sensitest broth containing human Apo-transferrin; 5×10^5 cfu/mL; read-out: Minimum Inhibitory Concentration (MIC) P. aeruginosa SR01332
# Protocol: as §1, with “Iso-Sensitest” for “Mueller Hinton”, “Apo-transferrin” for “apo-transferrin”, “method.” for “method. The bacteria used are listed below.”
# P. aeruginosa SR01335 = test: MIC, CLSI broth microdilution, Test Example 2; details: Pseudomonas aeruginosa, SR01335; VIM-1 like MBL producing strain (carbapenem resistance strain); cation-adjusted Iso-Sensitest broth containing human Apo-transferrin; 5×10^5 cfu/mL; read-out: Minimum Inhibitory Concentration (MIC) P. aeruginosa SR01335
# Protocol: as §1, with “Iso-Sensitest” for “Mueller Hinton”, “Apo-transferrin” for “apo-transferrin”, “method.” for “method. The bacteria used are listed below.”
Compound,MIC (P. aeruginosa SR24) [µg/mL],MIC (A. baumannii SR27323) [µg/mL],MIC (E. coli ATCCBAA-199) [µg/mL],MIC (E. coli ATCCBAA-200 [1]) [µg/mL],MIC [2] [µg/mL],MIC (P. aeruginosa SR24837) [µg/mL],MIC (P. aeruginosa SR27060) [µg/mL],MIC (A. baumannii SR01331) [µg/mL],MIC (E. cloacae NCTC13464) [µg/mL],MIC (E. coli ATCCBAA-196) [µg/mL],MIC (E. coli ATCCBAA-200 [3]) [µg/mL],MIC (E. coli SR01337) [µg/mL],MIC (K. pneumoniae ATCC700603) [µg/mL],MIC (P. aeruginosa SR01332) [µg/mL],MIC (P. aeruginosa SR01335) [µg/mL]
CC(C)(O/N=C(\C(=O)N[C@@H]1C(=O)N2C(c3nnn[n-]3)=C(C[N+]34CCC(CNC(=O)c5cc(=O)c(O)cn5O)(CC3)CC4)CS[C@H]12)c1csc(N)n1)C(=O)[O-].[Na+] [Compound I-18],0.5,0.125,0.125,0.25,≤ 0.031,1,2,–,–,–,–,–,–,–,–
C[N+]1(CC2=C(c3nnn[n-]3)N3C(=O)[C@@H](NC(=O)/C(=N\O[C@@H](CC(=O)[O-])C(=O)[O-])c4csc(N)n4)[C@H]3SC2)[C@@H]2CC[C@H]1C[C@@H](NC(=O)c1ccc(O)c(O)c1Cl)C2.[Na+].[Na+] (some centres unmarked) [Compound I-14],0.5,0.125,0.25,1,≤ 0.031,8,1,–,–,–,–,–,–,–,–
"CC(C)(O/N=C(\C(=O)N[C@@H]1C(=O)N2C(C(=O)[O-])=C(C[N+]34CCC(CNC(=O)c5ccc(O)c(O)c5Cl)(CC3)CC4)CS[C@H]12)c1csc(N)n1)C(=O)[O-].[Na+] [Comparative Compound 1, reference compound]",0.5,1,2,4,0.125,> 32,4,–,–,–,–,–,–,–,–
Nc1nc(/C(=N/O[C@@H](CC(=O)[O-])C(=O)[O-])C(=O)N[C@@H]2C(=O)N3C(c4nnn[n-]4)=C(C[N+]4(CCNC(=O)c5ccc(O)c(O)c5Cl)CCCC4)CS[C@H]23)cs1.[Na+].[Na+] [Compound I-3],0.5,0.25,≤ 0.031,0.063,≤ 0.031,2,1,–,–,–,–,–,–,–,–
Nc1nc(/C(=N/O[C@@H](CC(=O)[O-])C(=O)[O-])C(=O)N[C@@H]2C(=O)N3C(c4nnn[n-]4)=C(C[N+]4(CCNC(=O)c5cc(Cl)c(O)c(O)c5Cl)CCCC4)CS[C@H]23)cs1.[Na+].[Na+] [Compound I-60],–,–,–,–,–,–,–,0.5,0.063,≤ 0.031,0.063,≤ 0.031,≤ 0.031,4,1
Nc1nc(/C(=N/O[C@@H](CC(=O)O)C(=O)[O-])C(=O)N[C@@H]2C(=O)N3C(c4nnn[nH]4)=C(C[N+]4(CCNC(=O)c5cc(O)c(O)c(F)c5)CCCC4)CS[C@H]23)c(Cl)s1 [Compound I-100],–,–,–,–,–,–,–,0.25,0.25,≤ 0.031,0.063,≤ 0.031,0.125,2,2
CC(C)(O/N=C(\C(=O)N[C@@H]1C(=O)N2C(c3nnn[n-]3)=C(C[N+]3(CCNC(=O)c4cc(O)c(O)c(Cl)c4)CCCC3)CS[C@H]12)c1nc(N)sc1Cl)C(=O)[O-].[Na+] [Compound I-30],–,–,–,–,–,–,–,1,0.063,≤ 0.031,0.063,≤ 0.031,0.125,2,2
CC(C)(O/N=C(\C(=O)N[C@@H]1C(=O)N2C(c3nnn[n-]3)=C(C[n+]3ccc(CNC(=O)c4ccc(O)c(O)c4Cl)cc3)CS[C@H]12)c1nsc(N)n1)C(=O)[O-].[Na+] [Compound I-114],–,–,–,–,–,–,–,0.5,0.25,0.5,1,≤ 0.031,1,1,1
CC(C)(O/N=C(\C(=O)N[C@@H]1C(=O)N2C(c3nnn[nH]3)=C(C[N+]3(CCNC(=O)c4cc(O)c(O)c(F)c4)CCCC3)CS[C@H]12)c1nsc(N)n1)C(=O)[O-] [Compound I-108],–,–,–,–,–,–,–,1,0.125,0.25,0.25,≤ 0.031,0.25,2,2
Nc1nc(/C(=N/O[C@@H](CC(=O)O)C(=O)[O-])C(=O)N[C@@H]2C(=O)N3C(c4nnn[nH]4)=C(C[N+]4(CCNC(=O)c5cc(O)c(O)c(F)c5)CCCC4)CS[C@H]23)cs1 [Compound I-99],–,–,–,–,–,–,–,0.5,0.125,≤ 0.031,0.063,≤ 0.031,0.063,4,2
CC(C)(O/N=C(\C(=O)N[C@@H]1C(=O)N2C(c3nnn[n-]3)=C(C[n+]3ccc(NC(=O)c4ccc(O)c(O)c4Cl)cc3)CS[C@H]12)c1nc(N)sc1Cl)C(=O)[O-].[Na+] [Compound I-36],–,–,–,–,–,–,–,0.5,0.125,≤ 0.031,0.25,≤ 0.031,0.5,0.5,4
CC(C)(O/N=C(\C(=O)N[C@@H]1C(=O)N2C(c3nnn[n-]3)=C(C[N+]3(CCNC(=O)c4ccc(O)c(O)c4Cl)CCCCC3)CS[C@H]12)c1nc(N)sc1Cl)C(=O)[O-].[Na+] [Compound I-32],–,–,–,–,–,–,–,0.25,0.063,≤ 0.031,0.063,≤ 0.031,≤ 0.031,4,1
CC(C)(O/N=C(\C(=O)N[C@@H]1C(=O)N2C(c3nnn[nH]3)=C(C[N+]3(CCNC(=O)c4ccc(O)c(O)c4Cl)CCCCC3)CS[C@H]12)c1nsc(N)n1)C(=O)[O-] [Compound I-118],–,–,–,–,–,–,–,0.25,0.25,0.25,0.25,≤ 0.031,0.063,8,1
CC(C)(O/N=C(\C(=O)N[C@@H]1C(=O)N2C(c3nnn[n-]3)=C(C[n+]3ccc4cc(O)c(O)cc4c3)CS[C@H]12)c1nc(N)sc1Cl)C(=O)[O-].[Na+] [Compound I-37],–,–,–,–,–,–,–,0.25,≤ 0.031,≤ 0.031,0.063,≤ 0.031,0.063,0.25,0.5
Nc1nc(/C(=N/O[C@@H](CC(=O)O)C(=O)[O-])C(=O)N[C@@H]2C(=O)N3C(c4nnn[nH]4)=C(C[N@+]45CCC[C@H]4CN(C(=O)c4ccc(O)c(O)c4Cl)CC5)CS[C@H]23)c(Cl)s1 [Compound I-97],–,–,–,–,–,–,–,0.25,0.5,0.125,0.5,0.25,0.5,4,1
